Where two headings read alike, the source gives them in different places. Non-standard residues stand in square brackets, D forms with d. Residues, ends and D or L forms follow the SMILES beside them.
Legend:
bombesin/GRP receptor [1] = biological target: T1, bombesin/GRP receptor (Mus musculus, UniProt P21729); assay: 125I-GRP binding to membrane preparations of Swiss 3T3 cells; design: species or system murine
T1 construct: Membrane protein (150 μg) prepared from Swiss 3T3 cells as described above; endogenous in cells; host or cells: Swiss 3T3 cells; membrane-enriched fraction prepared with 5 mM Mg2+
T1 sequence (P21729 whole entry): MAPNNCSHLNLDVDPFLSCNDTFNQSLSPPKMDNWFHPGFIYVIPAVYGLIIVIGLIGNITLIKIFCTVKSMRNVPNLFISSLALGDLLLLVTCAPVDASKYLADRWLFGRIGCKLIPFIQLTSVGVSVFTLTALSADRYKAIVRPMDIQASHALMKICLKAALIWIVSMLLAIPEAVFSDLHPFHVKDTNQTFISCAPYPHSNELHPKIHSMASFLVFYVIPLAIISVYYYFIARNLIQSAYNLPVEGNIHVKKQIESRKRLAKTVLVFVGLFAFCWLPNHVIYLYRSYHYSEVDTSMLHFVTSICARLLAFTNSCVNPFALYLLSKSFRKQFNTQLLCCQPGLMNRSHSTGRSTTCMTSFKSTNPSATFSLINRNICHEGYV
Protocol: Membrane preparation: Cultures in roller bottles were washed twice with 150 ml phosphate buffered saline (PBS) (0.14M NaCl, 5 mM KCl, 0.01M Na2 HPO4, 1.8 mM KH2 PO4; pH 7.2) at room temperature. The cells were then harvested at 4° C. by scraping into ice cold PBS containing 5 mM MgCl2, 1 mM [ethylenebis(oxyethylenenitrilo)]tetraacetic acid (EGTA), 1 mg/ml bacitracin, 10 ug/ml aprotonin, 1 mg/ml soybean trypsin inhibitor and 50 μM phenylmethylsulphonyl fluoride. All subsequent steps were carried out at 4° C. The cells were pelleted by centrifugation at 750 x g for 10 minutes and resuspended 5×10^6 /ml in solution A containing 50 mM 4-(2-Hydroxyethyl)-1-piperazineethanesulfonic acid (Hepes), 5 mM MgCl2, 1 mM EGTA, 1 mg/ml bacitracin, 10 μg/ml aprotonin, 1 mg/ml soybean trypsin inhibitor and 50 μM phenylmethylsulfonyl fluoride, adjusted to pH 7.4 with NaOH at 4° C. Cells were then disrupted using a Dounce homogeniser (A pestle) 75 strokes. The homogenate was centrifuged at 500 x g for 10 minutes to remove nuclear material and intact cells and the supernatant was centrifuged again at 30000 x g for 30 minutes. The resulting pellet, representing a membrane-enriched preparation was resuspended at a protein concentration of 5 to 10 mg/ml in solution A and stored in liquid nitrogen. For experiments, membranes were thawed and diluted to a concentration of 1 mg/ml with solution A.
Receptor binding assay: Binding assays were carried out in a total volume of 100 ul in binding medium containing 50 mM Hepes, 5 mM MgCl2, 1 mg/ml bacitracin and 1% bovine serum albumin (BSA), adjusted to pH 7.4 with NaOH, unless otherwise indicated. […] Non-specific binding was subtracted from the total binding to obtain specific binding. The membranes were incubated for either 10 minutes at 37° C. or 30 minutes: at 15° C. as indicated.
The binding reactions were terminated at the specified times by rapid filtration on GF/B glass fibre filters (Whatmann, 1.0 μm pore size). Each filter was washed five times with 5 ml of PBS containing 1% BSA at 4° C. (15 s total time) using a Millipore filtration apparatus. Before the addition of membranes the filters were soaked for 24 hours in 5% polyethylenimine at 4° C. and washed with 5 ml of PBS containing 1% BSA immediately prior to use. […] Radioactivity was determined with a Beckmann γ-counter.
When 1n[(Beq - Bt)/(BoLo - Beq Bt)]is plotted as a function of time k1 can be determined from the slope by the following relation k1 =slope x [Beg/(Beg^2 - BoLo)](36) where Bo and Lo are the initial concentrations of receptor and ligand respectively. Bt is the concentration of receptor-ligand complex at time t and Beg is its concentration at equilibrium. Equation (1) takes into account the decrease in free ligand concentration that occurs during the binding reaction.
The first order rate constant of dissociation was determined from the slope of the line obtained by plotting ln(Bt/Beg) as a function of time.
The reactions were terminated and specific binding determined as described in "Experimental Procedures".

Mr 75,000-85,000 protein = biological target: T2, Mr 75,000-85,000 protein (Mus musculus, UniProt P21729); assay: Chemical cross-linking (EGS) of 125I-GRP to the Mr 75,000-85,000 protein in Swiss 3T3 membranes; type: binding, murine
T2 construct: Membrane protein (150 μg) prepared from Swiss 3T3 cells as described above; endogenous in cells; host or cells: Swiss 3T3 cells; membrane-enriched fraction prepared with 5 mM Mg2+
T2 sequence (P21729 whole entry): as above
Protocol: BSA was omitted from all solutions used in the cross-linking studies. At the end of the incubation the membranes were centrifuged at 1000 rpm for 1 minute in a MSE microfuge at room n temperature. The pellets were then resuspended in cross-linking medium containing 4 mM of the cross-linking reagent (EGS) and incubated at 37° C. or 15° C. for 5 minutes or 15 minutes respectively. The reaction was terminated by centrifugation for 1 minute followed by one wash with cross-linking medium and centrifugation. Samples were solubilised in 0.20 ml of 2× sample buffer, (0.2 M Tris-HCl pH 6.8, 10% (w/v) glycerol, 6% sodium dodecyl sulphate (SDS) (w/v), 4% β-mercaptoethanol (v/v), and 2 mM EDTA), immediately heated to 100° C. for 10 minutes and analysed by one dimensional electrophoresis.
SDS-Polyacrylaaide Gel glectrophoresis: Slab gel electrophoresis was performed using 8% acrylamide in the separating gel and 4% in the stacking gel and 0.1% SDS (37). After electrophoresis gels were stained, desrained and dried down onto paper for autoradiography with Fuji x-ray film. Dried gels were exposed for 2-4 days at -70° C. Autoradiograms were scanned using an LKB ultrascan XL densitometer; and the incorporation of radioactivity into the Mr 75,000-85,000 band was quantified using the Ultroscan XL internal digital integrator.
Following incubation at 37° C. for 10 minutes the membranes were pelleted by centrifugation and chemical cross-linking carried out as described in "Experimental Procedures" using 4 mM EGS. The samples were analyzed by SDS-PAGE and scanning densitometry of the autoradiograms as described in "Experimental Procedures".

Swiss 3T3 cells [2] = conditions: references 4,12,13; cited from earlier work
vasopressin receptor = biological target: T3, vasopressin receptor (Mus musculus, UniProt Q62463); conditions: references 4,12,13; cited from earlier work
T3 construct: endogenous in cells; host or cells: Swiss 3T3 cells
T3 sequence (Q62463 whole entry): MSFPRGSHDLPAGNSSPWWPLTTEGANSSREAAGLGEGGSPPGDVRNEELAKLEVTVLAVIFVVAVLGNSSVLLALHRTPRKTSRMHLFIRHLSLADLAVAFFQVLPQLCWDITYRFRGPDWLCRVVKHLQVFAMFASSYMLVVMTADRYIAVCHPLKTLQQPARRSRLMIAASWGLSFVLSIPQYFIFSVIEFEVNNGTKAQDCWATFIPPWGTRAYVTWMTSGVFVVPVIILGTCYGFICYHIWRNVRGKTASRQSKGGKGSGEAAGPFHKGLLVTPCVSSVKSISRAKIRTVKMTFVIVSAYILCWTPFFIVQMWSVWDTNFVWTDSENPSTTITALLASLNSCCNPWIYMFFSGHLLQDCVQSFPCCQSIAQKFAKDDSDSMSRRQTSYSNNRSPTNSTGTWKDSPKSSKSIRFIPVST

Swiss 3T3 cells [3] = system: Swiss 3T3 cells
[4] = system: small cell lung cancer (SCLC) cell lines; assay: Growth in vitro of small cell lung cancer (SCLC) cell lines; conditions: 5 of 5 cell lines tested: H69, H82, H128, H417 and UCH25
bombesin/GRP receptor [5] = biological target: T1, bombesin/GRP receptor; conditions: previously published; cited from earlier work
[6] = addition at 1μM, 0.5 nM 125I-GRP, 37° C., 10 minutes, None 305 ± 9, mean±SEM, n=3
[7] = 10 min, read-out: 125I-GRP affinity labelling of the Mr 75,000-85,000 protein
[8] = 0.5 nM 125I-GRP, 15° C., 30 minutes

## CCCC(=O)O[C@@H]1[C@@H](C)[C@@]2(O)[C@@H](C=C(CO)C[C@]3(O)C(=O)C(C)=C[C@@H]23)[C@@H]2C(C)(C)[C@]12OC(=O)CCC [PBt2, phorbol 12,13-dibutyrate]
bombesin/GRP receptor [1]; addition at 400 nM, 0.5 nM 125I-GRP, 37° C., 10 minutes, None 305 ± 9
  specific binding of 125I-GRP to membranes: 305 ± 9 fmole/mg protein
Mr 75,000-85,000 protein; addition at 400 nM, 0.5 nM 125I-GRP, 37° C., 10 minutes, None 100
  125I-GRP affinity labelling of the Mr 75,000-85,000 protein: 111 ± 2 % of maximum

## C[C@H](N)C(=O)NCC(=O)N[C@H]1CSSC[C@@H](C(=O)O)NC(=O)[C@H](CO)NC(=O)[C@H]([C@@H](C)O)NC(=O)[C@H](Cc2ccccc2)NC(=O)[C@H]([C@@H](C)O)NC(=O)[C@H](CCCCN)NC(=O)[C@H](Cc2c[nH]c3ccccc23)NC(=O)[C@H](Cc2ccccc2)NC(=O)[C@H](Cc2ccccc2)NC(=O)[C@H](CC(N)=O)NC(=O)[C@H](CCCCN)NC1=O [Somatostatin, somatostatin]
bombesin/GRP receptor [1]; [6]
  specific binding of 125I-GRP to membranes: 308 ± 8 fmole/mg protein

## NC(=O)CC[C@@H]1NC(=O)[C@H](Cc2ccccc2)NC(=O)[C@H](Cc2ccc(O)cc2)NC(=O)[C@@H](N)CSSC[C@@H](C(=O)N2CCC[C@H]2C(=O)N[C@@H](CCCN=C(N)N)C(=O)NCC(N)=O)NC(=O)[C@H](CC(N)=O)NC1=O [Vasopressin, vasopressin]
bombesin/GRP receptor [1]; [6]
  specific binding of 125I-GRP to membranes: 353 ± 10 fmole/mg protein
Mr 75,000-85,000 protein; [7]
  remaining activity at 1 µM: 102 ± 1%

## CC(C)C[C@H](NC(=O)[C@H](CC(C)C)NC(=O)[C@@H](Cc1c[nH]c2ccccc12)NC(=O)[C@H](Cc1ccccc1)NC(=O)[C@@H](Cc1c[nH]c2ccccc12)NC(=O)[C@H](CCC(N)=O)NC(=O)[C@H](CCC(N)=O)NC(=O)[C@@H]1CCCN1C(=O)[C@H](CCCCN)NC(=O)[C@H]1CCCN1C(=O)[C@H](N)CCCNC(=N)N)C(N)=O [antagonist A, D-Arg-D-Pro-Lys-Pro-Gln-Gln-D-Tro-Phe-D-Trp-Leu-Leu-NH2] (H-[dR][dP]KPQQ[dW]F[dW]LL-NH2)
bombesin/GRP receptor [1]; [8]
  IC50: 38 µM
Swiss 3T3 cells [2]
  inhibition of vasopressin-stimulated DNA synthesis: inhibit
Vasopressin receptor
  inhibition of [3H]vasopressin binding: inhibit
Swiss 3T3 cells [3]
  IC50: 90 µM
[4]
  concentrations effective in inhibiting growth of SCLC: 50 to 150 µM

## CC(C)C[C@H](NC(=O)[C@H](CC(C)C)NC(=O)[C@@H](Cc1c[nH]c2ccccc12)NC(=O)[C@H](Cc1ccccc1)NC(=O)[C@@H](Cc1c[nH]c2ccccc12)NC(=O)[C@H](CCC(N)=O)NC(=O)[C@@H](Cc1ccccc1)NC(=O)[C@@H]1CCCN1C(=O)[C@H](CCCCN)NC(=O)[C@@H]1CCCN1C(=O)[C@H](N)CCCN=C(N)N)C(N)=O [antagonist D, D-Arg-Pro-Lys-Pro-D-Phe-Gln-D-Trp-Phe-D-Trp-Leu-Leu-NH2] (H-[dR]PKP[dF]Q[dW]F[dW]LL-NH2)
bombesin/GRP receptor [1]; [8]
  IC50: 7 µM

## CSCC[C@H](NC(=O)[C@H](CC(C)C)NC(=O)[C@H](Cc1cnc[nH]1)NC(=O)CNC(=O)[C@@H](NC(=O)[C@H](C)NC(=O)[C@@H](N)Cc1c[nH]c2ccccc12)C(C)C)C(N)=O [bombesin (8-14)]
bombesin/GRP receptor [1]
  IC50: 4 µM
Mr 75,000-85,000 protein; [7]
  remaining activity at 10 µM: 5 ± 2%

## CSCC[C@H](NC(=O)[C@H](CC(C)C)NC(=O)[C@H](Cc1cnc[nH]1)NC(=O)CNC(=O)[C@@H](NC(=O)[C@H](C)NC(=O)[C@H](Cc1c[nH]c2ccccc12)NC(=O)[C@H](CCC(N)=O)NC(=O)[C@H](CC(N)=O)NC(=O)CNC(=O)[C@H](CC(C)C)NC(=O)[C@H](CCCN=C(N)N)NC(=O)[C@H](CCC(N)=O)NC(=O)[C@@H]1CCC(=O)N1)C(C)C)C(N)=O [bombesin]
bombesin/GRP receptor [1]
  specific binding of 125I-GRP to membranes: 7 ± 0.2 fmole/mg protein
Mr 75,000-85,000 protein; [7]
  remaining activity at 0.1 µM: 5 ± 1%

## CSCC[C@H](NC(=O)[C@H](Cc1ccccc1)NC(=O)[C@H](Cc1cnc[nH]1)NC(=O)CNC(=O)[C@@H](NC(=O)[C@H](C)NC(=O)[C@H](Cc1c[nH]c2ccccc12)NC(=O)[C@H](CC(C)C)NC(=O)[C@H](CC(N)=O)NC(=O)CN)[C@@H](C)O)C(N)=O [neuromedin B]
bombesin/GRP receptor [1]
  IC50: 0.18 µM
Mr 75,000-85,000 protein; [7]
  remaining activity at 1 µM: 7 ± 2%

## CSCC[C@H](NC(=O)[C@H](CC(C)C)NC(=O)CNC(=O)[C@H](Cc1ccccc1)NC(=O)[C@H](Cc1ccccc1)NC(=O)[C@H](CCC(N)=O)NC(=O)[C@H](CCC(N)=O)NC(=O)[C@@H]1CCCN1C(=O)[C@H](CCCCN)NC(=O)[C@@H]1CCCN1C(=O)[C@@H](N)CCCNC(=N)N)C(N)=O [substance P, Arg-Pro-Lys-Pro-Gln-Gln-phe-phe-Gly-Leu-Met-NH2]
bombesin/GRP receptor [5]
  inhibition of binding of [125I]GRP to Swiss 3T3 cells: neither inhibits
bombesin/GRP receptor [1]; [6]
  specific binding of 125I-GRP to membranes: 305 ± 4 fmole/mg protein
Mr 75,000-85,000 protein; 10 min, addition at 1μM, 0.5 nM 125I-GRP, 37° C., 10 minutes, None 100, read-out: 125I-GRP affinity labelling of the Mr 75,000-85,000 protein
  remaining activity at 1 µM: 93 ± 2%

## EGF: epidermal growth factor
bombesin/GRP receptor [1]; addition at 40 nM, 0.5 nM 125I-GRP, 37° C., 10 minutes, None 305 ± 9
  specific binding of 125I-GRP to membranes: 305 ± 6 fmole/mg protein
Mr 75,000-85,000 protein; addition at 40 nM, 0.5 nM 125I-GRP, 37° C., 10 minutes, None 100
  125I-GRP affinity labelling of the Mr 75,000-85,000 protein: 108 ± 1 % of maximum

## Insulin: insulin purchased from Sigma
bombesin/GRP receptor [1]; addition at 1.5 μM, 0.5 nM 125I-GRP, 37° C., 10 minutes, None 305 ± 9
  specific binding of 125I-GRP to membranes: 332 ± 6 fmole/mg protein
Mr 75,000-85,000 protein; addition at 1.5 μM, 0.5 nM 125I-GRP, 37° C., 10 minutes, None 100
  125I-GRP affinity labelling of the Mr 75,000-85,000 protein: 113 ± 3 % of maximum

## PDGF: Recombinant platelet derived growth factor c-sis
bombesin/GRP receptor [1]; addition at 15 nM, 0.5 nM 125I-GRP, 37° C., 10 minutes, None 305 ± 9
  specific binding of 125I-GRP to membranes: 341 ± 9 fmole/mg protein
Mr 75,000-85,000 protein; addition at 15 nM, 0.5 nM 125I-GRP, 37° C., 10 minutes, None 100
  125I-GRP affinity labelling of the Mr 75,000-85,000 protein: 104 ± 1 % of maximum

## litorin
bombesin/GRP receptor [1]; concentration-dependent manner
  inhibition of specific binding of 125I-GRP to membrane preparations: inhibited
Mr 75,000-85,000 protein; addition at 100 nM, 0.5 nM 125I-GRP, 37° C., 10 minutes, None 100
  125I-GRP affinity labelling of the Mr 75,000-85,000 protein: 3 ± 1 % of maximum

## substance K
bombesin/GRP receptor [1]; [6]
  specific binding of 125I-GRP to membranes: 314 ± 5 fmole/mg protein

## vasoactive intestinal peptide [VIP]
bombesin/GRP receptor [1]; [6]
  specific binding of 125I-GRP to membranes: 353 ± 10 fmole/mg protein
